This is an account of results in patent publication US20230286923A1 (INIPHARM, INC., priority 2020, published 2023).

Structures are written as SMILES.

The target in test [1] is T1, HSD17B13 enzyme (Homo sapiens (Human), UniProt Q7Z5P4). In words: NADH detection assay (fluorescence based LTB3 assay) for HSD17B13 activity. The class given is biochemical. The settings on record: substrate 25 µM LTB3, 3 mM NAD+, 125 nM enzyme. Here is the method:
The fluorescence based Leukotriene B3 (LTB3) assay monitors the fluorescence of NADH, which is generated from NAD+ during the dehydrogenation of the substrate LTB3. The reactions were performed in a 384-well plates (Greiner; #655076) in a 20 µl reaction volume containing the following reagents (final concentrations): 25 µM LTB3 (Cayman; #20109); 3 mM NAD^+ (Sigma; #N0623); 125 nM HSD17B13 enzyme (in-house; E. coli expressed His-tagged, purified, soluble protein); 1 M potassium phosphate buffer, pH 7.4; and 1% DMSO. Reactions were initiated by co-addition of NAD+ and enzyme, and monitored for 1 hour at 26.5° C. Generation of NADH was measured as the fluorescence signal (Excitation at 340 nm and Emission at 445 nm) at 1 hour minus the baseline fluorescence at t=0. Fluorescence signals in the absence of LTB3 (negative control values), were subtracted from all values so that the results reflected substrate-dependent production of NADH. NADH standards were included to allow the conversion of relative fluorescence units into rates of enzyme activity. Enzyme activity in the presence of test compounds was expressed as a percentage of the uninhibited enzyme activity, and plotted versus inhibitor concentration. Non-linear regression was performed using a four-parameter logistic model and Microsoft Excel Solver software Ten concentrations of inhibitor were tested in duplicate (in the range of 30 µM - 2.5 nM), and two independent concentration response assays were performed.

In test [2] the target is T1, HSD17B13 enzyme. Put plainly: Estrone detection assay (LC/MS, conversion of estradiol to estrone) for HSD17B13 activity. The class given is biochemical. Conditions: substrate 4 µM estradiol, 6 mM NAD+, 30 nM enzyme. Here is the method:
The liquid chromatography/mass spectrometry (LC/MS) estrone detection assay monitors the conversion of estradiol to estrone by HSD17B13. This assay was undertaken in a 96wp format (Eppendorf deep well Plate 96/500) in an 80 µl reaction volume containing: 4 µM of Estradiol (E2; Cayman; #10006315), 6 mM NAD^+ (Sigma; #N0623) and 30 nM HSD17B13 enzyme (in-house; E. coli expressed His-tagged, purified, soluble protein) in a reaction containing 1 M potassium phosphate buffer pH 7.4, with 0.5% vehicle (DMSO). Reactions were incubated for 2 hours at 26.5° C., and estradiol (E2) conversion to estrone (E1) was quantitated by LC-MS/MS based analyte detection for both E2 and E1 using LCMS grade reagents.
Reactions were terminated by the addition of two volumes of acetonitrile (MeCN; LCMS grade; CAS# 75/05/8) containing deuterated (D4)-E1 used as internal standard (Clear Synth; #CS-T-54273; 500 ng/mL final concentration). Samples were applied to pre-prepared Bond Elut-C18 extraction cartridges (3 mL; Agilent; #12102028), washed and eluted in MeCN. Eluates were dried under nitrogen and re-suspended in 60% methanol (LCMS grade methanol; CAS# 67/56/1) before submission for analysis. Aqueous linearity for E2 and E1 were included for quantification.
Analysis of samples was undertaken on a XBridge BEH C18 column (Waters; #186003033) using 0.1% Diethyl Amine in MeCN (mobile phase A; DEA CAS# 109-89-7) and 0.1% Diethyl Amine in milli-Q water (mobile phase B) in a 3 min gradient allowing 25%B. Analytes were detected in negative mode using MRM analysis, with E2 having a RT of 1.85 min and E1 having a RT of 2 min. Activity of the enzyme, in the absence of NAD^+, was used to evaluate specificity of conversion. Enzyme activity in the presence of test samples was expressed as a percentage of the uninhibited enzyme activity, and plotted versus inhibitor concentration. Non-linear regression was performed using a four-parameter logistic model and GraphPad Prism software (GraphPad Software, La Jolla, CA). All assessments were undertaken in duplicate evaluations and pooled during extraction process and subsequently injected as duplicates for LC-MS/MS analysis.

T1 sequence (Q7Z5P4 20-300): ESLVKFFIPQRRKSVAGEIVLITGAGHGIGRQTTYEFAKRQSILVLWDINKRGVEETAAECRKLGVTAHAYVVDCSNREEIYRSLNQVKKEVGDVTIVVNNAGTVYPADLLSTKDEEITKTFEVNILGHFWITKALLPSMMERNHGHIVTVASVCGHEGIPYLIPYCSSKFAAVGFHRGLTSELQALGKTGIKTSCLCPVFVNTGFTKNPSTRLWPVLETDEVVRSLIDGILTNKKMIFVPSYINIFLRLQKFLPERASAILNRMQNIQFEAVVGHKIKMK

Consider `COc1ccccc1CCn1cnc2cccc(NC(=O)c3ccc(-c4cn[nH]c4)c(F)c3)c2c1=O` [Example 21, 3-fluoro-N-(3-(2-methoxyphenethyl)-4-oxo-3,4-dihydroquinazolin-5-yl)-4-(1H-pyrazol-4-yl)benzamide], for which the IC50 on HSD17B13 enzyme [1] and on HSD17B13 enzyme [2] was above 10 µM throughout.
Consider `COc1ccccc1CCn1cnc2cccc(NC(=O)c3ccc(-c4cc[nH]n4)c(F)c3)c2c1=O` [Example 22, 3-fluoro-N-(3-(2-methoxyphenethyl)-4-oxo-3,4-dihydroquinazolin-5-yl)-4-(1H-pyrazol-3-yl)benzamide], for which the IC50 was 1 to 5 µM on HSD17B13 enzyme [1] and above 10 µM against HSD17B13 enzyme [2].
On the same counts, the results for `COc1ccccc1CCn1cnc2cccc(NC(=O)c3ccc(P(=O)(O)O)c(F)c3)c2c1=O` [Example 23, (2-fluoro-4-((3-(2-methoxyphenethyl)-4-oxo-3,4-dihydroquinazolin-5-yl)carbamoyl)phenyl)phosphonic acid] are above 10 µM and above 10 µM.
On the same counts, the results for `COc1ccccc1CCn1cnc2cccc(NC(=O)c3cc(Cl)c(O)c(C(C)C)c3)c2c1=O` [Example 24, 3-chloro-4-hydroxy-5-isopropyl-N-(3-(2-methoxyphenethyl)-4-oxo-3,4-dihydroquinazolin-5-yl)benzamide] are above 10 µM and above 10 µM.
On to `COc1ccccc1CCn1cnc2cccc(NC(=O)c3ccc(CC(=O)O)c(F)c3)c2c1=O` [Example 25, 2-(2-fluoro-4-((3-(2-methoxyphenethyl)-4-oxo-3,4-dihydroquinazolin-5-yl)carbamoyl)phenyl)acetic acid], for which the IC50 was above 10 µM against HSD17B13 enzyme [1] and 1 to 10 µM against HSD17B13 enzyme [2].
As for `COc1ccccc1CCn1cnc2cccc(NC(=O)c3ccc(-c4cnn[nH]4)c(F)c3)c2c1=O` [Example 26, 3-fluoro-N-(3-(2-methoxyphenethyl)-4-oxo-3,4-dihydroquinazolin-5-yl)-4-(1H-1,2,3-triazol-5-yl)benzamide], the IC50 against HSD17B13 enzyme [1] was above 10 µM; against HSD17B13 enzyme [2] it was 1 to 10 µM.
On the same counts, the results for `COc1ccccc1CCn1cnc2cccc(NC(=O)c3ccc(-c4nnn[nH]4)c(Cl)c3)c2c1=O` [Example 27, 3-chloro-N-(3-(2-methoxyphenethyl)-4-oxo-3,4-dihydroquinazolin-5-yl)-4-(1H-tetrazol-5-yl)benzamide] are 1 to 5 µM and 1 to 10 µM.
On the same counts, the results for `COc1ccccc1CCn1cnc2c(c(NC(=O)c3ccc(O)c(F)c3)nn2C)c1=O` [Example 28, 3-fluoro-4-hydroxy-N-(5-(2-methoxyphenethyl)-1-methyl-4-oxo-4,5-dihydro-1H-pyrazolo[3,4-d]pyrimidin-3-yl)benzamide] are 5 to 10 µM and 0.1 to 1 µM.
On the same counts, the results for `COc1ccccc1CCn1cnc2cccc(NC(=O)c3ccc(S(N)(=O)=O)c(Cl)c3)c2c1=O` [Example 29, 3-chloro-N-(3-(2-methoxyphenethyl)-4-oxo-3,4-dihydroquinazolin-5-yl)-4-sulfamoylbenzamide] are above 10 µM and above 10 µM.
Consider `O=C(Nc1cccc2ncn(Cc3cccnc3)c(=O)c12)c1ccc(O)c(Cl)c1` [Example 30, 3-chloro-4-hydroxy-N-(4-oxo-3-(pyridin-3-ylmethyl)-3,4-dihydroquinazolin-5-yl)benzamide], for which the IC50 at HSD17B13 enzyme [1] was at most 1 µM; against HSD17B13 enzyme [2], at most 0.1 µM.
On the same counts, the results for `COc1ccccc1CCn1cnc2cccc(NC(=O)c3ccc(O)c(C(C)(C)C)c3)c2c1=O` [Example 31, 3-(tert-butyl)-4-hydroxy-N-(3-(2-methoxyphenethyl)-4-oxo-3,4-dihydroquinazolin-5-yl)benzamide] are above 10 µM and above 10 µM.
On the same counts, the results for `COc1ccccc1CCn1cnc2cccc(NC(=O)c3ccc(O)c(C(F)(F)F)c3)c2c1=O` [Example 32, 4-hydroxy-N-(3-(2-methoxyphenethyl)-4-oxo-3,4-dihydroquinazolin-5-yl)-3-(trifluoromethyl)benzamide] are at most 1 µM and at most 0.1 µM.
On the same counts, the results for `COc1ccccc1CCn1cnc2cccc(NC(=O)c3cc(Cl)c(O)c(Cl)c3)c2c1=O` [Example 33, 3,5-dichloro-4-hydroxy-N-(3-(2-methoxyphenethyl)-4-oxo-3,4-dihydroquinazolin-5-yl)benzamide] are 1 to 5 µM and 0.1 to 1 µM.
With `COc1ccccc1CCn1cnc2sc(C)c(NC(=O)c3ccc(O)c(Cl)c3)c2c1=O` [Example 34, 3-chloro-4-hydroxy-N-(3-(2-methoxyphenethyl)-6-methyl-4-oxo-3,4-dihydrothieno[2,3-d]pyrimidin-5-yl)benzamide], the IC50 against HSD17B13 enzyme [1] was at most 1 µM; against HSD17B13 enzyme [2], at most 0.1 µM.
